Measured values as given in patent US10662204B2 (PFIZER INC., priority 2018, dated 2020).

What was measured:
[1] = molecular target: T1, GDP-loaded KRAS (1-169) G12C, C51S, C80L, C118S (Homo sapiens, UniProt P01116, C118S/C51S/C80L/G12C); test: Mass Spectrometry Reactivity Assay (MSRA): covalent adduct of compound and KRAS G12C, Percent Modification; assay type: binding; conditions: for MSRA (% modification) 10 μM 0.25 hr / MSRA (% modification) 10 μM 0.50 hr: 10 μM compound; for MSRA (% modification) 5.0 μM 0.017 hr: 5.0 μM compound
T1 construct: GDP-loaded KRAS (1-169) G12C, C51S, C80L, C118S
Summary of the method: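 Covalent labelling is measured by intact mass: deconvoluted modified and unmodified peak intensities yield percent modification. Compound, usually 5 μM or 10 μM final, reacts at room temperature with 5 μM GDP-bound KRAS G12C (1-169, C51S/C80L/C118S) in Hepes pH 7.5/NaCl/glycerol, sampled at 1, 15, 30, 60 min.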

KRAS G12C = KRAS G12C (Homo sapiens, UniProt P01116, G12C); test: Cell Activity Assay: accumulation of GDP-bound KRAS G12C in MIAPaCa-2 cells (Raf-1 RBD capture, MSD readout); assay type: cell-based; set-up: endogenous in cells; host or cells: MIAPaCa-2; conditions: 6 hours, assay limit is 30.00
Procedure: Compounds presented in the present invention lead to the accumulation of the GDP bound Ras upon treatment of human cancer cell line.
The accumulation of the GDP-bound KRAS G12C in cellular environment was measured based on the principle that KRAS G12C only binds to its downstream kinase; Raf-1 (MAP Kinase Kinase Kinase), when in its active-GTP bound state. In this state, Ras binded to a domain of Raf-1 kinase referred to as the Ras Binding Domain (RBD).
MIAPaCa-2 cells were grown in RPMI 1640 medium (Gibco 11875) supplemented with 10% fetal bovine serum and 1% penicillin/streptomycin. Cells were seeded in 96-well tissue culture plates at a density of 30,000 cells/well and allowed to attach for 16-24 hours. Test compounds were prepared as a 10 mM stock in DMSO and serially diluted in 100% DMSO using a 3-fold dilution scheme. An intermediate 5× concentrated plate in complete growth medium was made and 25 μl/well was added to the 100 μl of cells for a final concentration of 0.3% DMSO. Each concentration of exemplary compound was tested in duplicate. The negative control wells were cells with control inhibitor at 10 μM, and the positive control wells were cells without drugs, DMSO only. Plates were incubated for 6 hours at 37° C., 5% CO2. Following treatment, cells were washed 3× with ice-cold PBS and 115 μl/well ice-cold 1× Assay/Lysis. Buffer with protease inhibitors was added (25 mM HEPES, pH 7.5, 150 mM NaCl, 1% NP-40, 10 mM MgCl2, 1 mM EDTA, 2% Glycerol). Following lysis samples were frozen at −80° C.
Raf-1 RBD (LJIC-1988A1) was diluted to 100 ng/well in PBS and 5 μl/well was spot coated onto MSD high bind SECTOR plates (L15XB). Plates were incubated at room temperature for 1 hour on an orbital shaker. Plates were washed with PBS/0.05% Tween-20 and 50 μl/well of thawed lysate samples were added, followed by 50 μl of 1% MSD Blocker A in PBS/0.05 Tween-20 (R93BA). Plates were incubated for 1 hour on an orbital shaker and washed with PBS/0.05% Tween-20. 25 μl/well of Anti-pan-Ras Antibody (Cell Biolabs 244003) diluted 1:3000 was added in 1% MSD Blocker A solution and plates were incubated for 1 hour on an orbital shaker and washed with PBS/0.05% Tween-20. SULFO-TAG goat anti-mouse secondary antibody (MSD R32AC) was diluted 1:500 in MSD Blocker A solution and added at 25 μL/well. Plates were incubated for 1 hour on an orbital shaker and washed with PBS/0.05% Tween-20. 150 μl/well of Read Buffer T (MSD R92TC) diluted 1:3 in H2O was added and plates were read on a Meso Scale Discovery Sector Imager S600.
KRAS signal was normalized to maximum inhibition and DMSO control values, and IC50 values were generated using a 4 parameter fit of the dose response curve. The decrease in IC50 reflects that the exemplary compound lead to a higher level of accumulation of GDP-bound KRAS G12C than another exemplary compounds at specific timepoint of treatment of cancer cell line.

SMILES | MSRA (% modification) 10 μM 0.25 hr [1] | MSRA (% modification) 10 μM 0.50 hr [1] | IC50 (KRAS G12C) | MSRA (% modification) 5.0 μM 0.017 hr [1]
C=CC(=O)N1CCN(c2nc(OC[C@H]3CCC(=O)N3)nc3c(Oc4c(C)ccc5[nH]ncc45)cccc23)CC1 [Example 10F, (5R)-5-[({4-(4-acryloylpiperazin-1-yl)-8-[(5-methyl-1H-indazol-4-yl)oxy]quinazolin-2-yl}oxy)methyl]pyrrolidin-2-one] | 53% | 65% | 6.07 µM | –
C=CC(=O)N1CCN(c2ncnc3c(Cc4c(C)ccc5[nH]ncc45)nccc23)CC1 [Example 02D, 1-(4-{8-[(5-methyl-1H-indazol-4-yl)methyl]pyrido[3,4-d]pyrimidin-4-yl}piperazin-1-yl)prop-2-en-1-one] | – | 12% | 4.66 µM | –
C=CC(=O)N1CCN(c2nc(O[C@@H]3CN(C(C)(C)C)C[C@H]3OC)nc3c(Oc4c(Cl)c(F)cc5[nH]ncc45)nccc23)CC1 [Example 52I, 1-[4-(2-{[(3R,4R)-1-tert-butyl-4-methoxy-pyrrolidin-3-yl]oxy}-8-[(5-chloro-6-fluoro-1H-indazol-4-yl)oxy]pyrido [3,4-d]pyrimidin-4-yl)piperazin-1-yl]prop-2-en-1-one] | – | – | 0.023 µM | 81%
C=CC(=O)N1CCN(c2nc(OC[C@@H]3CCCN3C)nc3c(Oc4c(C)c(Cl)cc5[nH]ncc45)nc(Cl)cc23)CC1 [Example 10G, 1-[4-(6-chloro-8-[(6-chloro-5-methyl-1H-indazol-4-yl)oxy]-2-{[(2S)-1-methylpyrrolidin-2-yl]methoxy}pyrido[3,4-d]pyrimidin-4-yl)piperazin-1-yl]prop-2-en-1-one] | 53% | – | 0.071 µM | –
C=CC(=O)N1CCN(c2nc(O[C@@H]3CN(C)C[C@H]3C)nc3c(Oc4c(Cl)c(Cl)cc5[nH]ncc45)nccc23)CC1 (racemic) [Example 51I, rac-1-[4-(8-[(5,6-dichloro-1H-indazol-4-yl)oxy]-2-{[(3S,4R)-1,4-dimethyl-pyrrolidin-3-yl]oxy}pyrido [3,4-d]pyrimidin-4-yl)piperazin-1-yl]prop-2-en-1-one] | – | – | 0.031 µM | 39%
C=CC(=O)N1CCN(c2nc(Oc3cccc4c3CCN(C(C)C)C4)nc3c(Oc4c(Cl)c(F)cc5[nH]ncc45)nccc23)CC1 [Example 19I, 1-[4-(8-[(5-chloro-6-fluoro-1H-indazol-4-yl)oxy]-2-{[2-(propan-2-yl)-1,2,3,4-tetrahydro-isoquinolin-5-yl]oxy}pyrido [3,4-d]pyrimidin-4-yl)piperazin-1-yl]prop-2-en-1-one] | – | – | 0.003 µM | 82%
C=CC(=O)N1CCN(c2nc(O[C@@H]3CN(C)C[C@H]3C3CC3)nc3c(Oc4c(Cl)c(F)cc5[nH]ncc45)nccc23)CC1 (racemic) [Example 39I, rac-1-[4-(8-[(5-chloro-6-fluoro-1H-indazol-4-yl)oxy]-2-{[(3S,4R)-4-cyclo-propyl-1-methyl-pyrrolidin-3-yl]oxy}pyrido [3,4-d]pyrimidin-4-yl)piperazin-1-yl]prop-2-en-1-one] | – | – | 0.083 µM | 31%
C=CC(=O)N1CCN(c2ncnc3c(Oc4c(C)cccc4Cl)nccc23)CC1 [Example 03, 1-{4-[8-(2-Chloro-6-methylphenoxy)pyrido[3,4-d]pyrimidin-4-yl]piperazin-1-yl}prop-2-en-1-one] | – | 15% | > 30 µM | –
C=CC(=O)N1CCN(c2nc(OC[C@@H]3CCCN3C)nc3c(Oc4c(Cl)c(F)cc5[nH]ncc45)cccc23)CC1 [Example 16E, 1-[4-(8-[(5-chloro-6-fluoro-1H-indazol-4-yl)oxy]-2-{[(2S)-1-methylpyrrolidin-2-yl]methoxy}quinazolin-4-yl)piperazin-1-yl]prop-2-en-1-one] | 11% | – | 0.413 µM | –
